{"source": "PubChem BioAssay AID1963837", "about": "(Molecular Pharmacology Branch, DTP, NCI, 2024)"}
{"tested_on": "843126-344-R-J1-PDC complex spheroid viability", "test": "Anticancer human tumor 843126-344-R-J1-PDC patient-derived melanoma cell line growth inhibition [POLQ]", "details": "curve of first compound; second compound 3.16 µM", "protocol": "(§1) Multicellular complex tumor spheroid response to Polymerase (POL) inhibitors (novobiocin, ART-558, RP6685) in combination with a variety of drugs and investigational agents in selected tumor cell lines\n(§2) The POL inhibitors (novobiocin, ART-558, and RP6685) were evaluated both individually and in combination with standard of care and investigational anticancer small molecules within a complex spheroid model of solid tumors. . Complex spheroids include a stromal component modeled by human endothelial cells (HUVEC) and fibroblasts modeled by human mesenchymal stem cells (MSCs). The concentration ranges selected for each drug and investigational agent were based upon clinically achievable concentrations if the clinical Cmax of the agent was known.\n(§3) Compounds. The drugs and investigational agents: novobiocin (NSC847541), ART-558 (NSC835418), RP-6685 (NSC848927), peposertib (NSC802822), ceralasertib (NSC780249), elimusertib (NSC800525), camonsertib (NSC841442), AZD-1390 (NSC803789), olaparib (NSC753686), talazoparib (NSC767125), rucaparib (NSC756644), sotorasib (NSC818433), MRTX-1133 (NSC836407), SN-38 (NSC673596), topotecan (NSC609699), epotoside (NSC141540), doxorubicin (NSC123127), gemcitabine (NSC613327), 5-fluorouracil (NSC19893), paclitaxel (NSC125973), vemurafenib (NSC761431), MSA-2 (NSC828583), SN-011 (NSC837082), adavosertib (NSC754352), prexasertib (NSC758257), carboplatin (NSC241240) and oxaliplatin (NSC266046), were obtained from the National Cancer Institute (NCI) Developmental Therapeutics Program Chemical Repository (21). The FDA-approved anticancer drug set is available from the Developmental Therapeutics Program at https://dtp.cancer.gov/organization/dscb/obtaining/. […] The stock solutions were prepared in dimethyl sulfoxide (DMSO, Sigma-Aldrich, St. Louis, MO, cat. D2650), except for the platinum compounds which were prepared in saline (Quality Biological, Gaithersburg, MD, cat. 114-055-101), at 800-fold the tested concentration and stored at -70 degrees C prior to their use. All drugs and investigational agents were tested over a range starting from a high concentration at or near the clinical Cmax and decreasing in half-log increments. If the clinical Cmax for an agent had not been determined, the highest concentration tested was 10 microM, except for SN-38, which was tested at a high concentration of 1 microM.\n(§4) Cell Culture. All cells were maintained in an incubator at 37 degrees C and 5% CO2 with 95% humidity. The PDC lines were cultured according to standard operating procedures established by the NCI PDMR (https://pdmr.cancer.gov). Table 3 of the manuscript, lists the cell lines along with the number of the three cell types plated to form the mct-spheroids and media for tumor cell growth. After thawing, all PDC lines, except 997537-175-T-J1-PDC and 415267-285-R-J2-PDC, were cultured in Matrigel-coated flasks prepared with a working solution of 1X Ham's F-12 nutrient mix, without supplementation (Thermo Fisher Scientific, cat. 11765054), 100 U/mL penicillin-streptomycin (Thermo Fisher Scientific, cat. 15140122), and 2.5% Matrigel (Corning Inc., Corning, NY, cat. 354248) for the first three passages. The two PDC lines 997537-175-T-J1-PDC and 415267-285-R-J2-PDC were cultured on uncoated flasks. The 857933-349-R-J2-PDC line was cultured in 6C/Colon 1B media containing advanced DMEM/F-12 (Thermo Fisher Scientific, cat. 12634028), 10 mM HEPES (Thermo Fisher Scientific, cat. 15630080), 1X GlutaMAX supplement (Thermo Fisher Scientific, cat. 35050061), 0.1 mg/mL primocin (InvivoGen, San Diego, CA, cat. ant-pm-2), 10% defined fetal bovine serum, heat inactivated (HyClone Laboratories Inc., Logan, UT, cat. SH30070.03HI), 50% L-WRN conditioned media (ATCC, cat. CRL-3276), 1.25 mM N-Acetyl-L-cysteine (Sigma-Aldrich, cat. A9165), 10 mM nicotinamide (Sigma-Aldrich, cat. N0636), 1X B-27 supplement (Thermo Fisher Scientific, cat. 17504044), 1X N-2 supplement (Thermo Fisher Scientific, cat. […]", "units": {"IC50": "µM"}}
{"smiles": "O=C(Nc1ccc(O)c(NS(=O)(=O)c2ccc(F)cc2)c1)c1ccc(-c2ccccc2)cc1", "note": "+ Cc1cccc(N(C)C(=O)C2C(O)CCN2c2nc(C)cc(C(F)(F)F)c2C#N)c1", "IC50": "> 10"}
{"smiles": "COc1cccc2c1C(=O)c1c(O)c3c(c(O)c1C2=O)CC(O)(C(=O)CO)CC3OC1CC(N)C(O)C(C)O1", "note": "(stereo not drawn) + Cc1cccc(N(C)C(=O)C2C(O)CCN2c2nc(C)cc(C(F)(F)F)c2C#N)c1", "IC50": 0.184}
{"smiles": "COc1ccc([C@@H](O)c2cc(-c3ncnc4cc(N5CCOCC5)ccc34)c(F)cc2Cl)nn1", "note": "+ Cc1cccc(N(C)C(=O)C2C(O)CCN2c2nc(C)cc(C(F)(F)F)c2C#N)c1", "IC50": "> 10"}
{"tested_on": "843126-344-R-J1-PDC complex spheroid viability", "test": "Anticancer human tumor 843126-344-R-J1-PDC cell line growth inhibition [POLQ];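 as to viability, T/C: spheroids exposed to drugs for seven days before readout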", "details": "curve of first compound; second compound 10 µM", "protocol": "as §1, §2, §3, §4", "units": {"IC50": "µM"}}
{"smiles": "O=C(Nc1ccc(O)c(NS(=O)(=O)c2ccc(F)cc2)c1)c1ccc(-c2ccccc2)cc1", "note": "+ Cc1cccc(N(C)C(=O)C2C(O)CCN2c2nc(C)cc(C(F)(F)F)c2C#N)c1", "IC50": "> 10"}
{"smiles": "COc1cccc2c1C(=O)c1c(O)c3c(c(O)c1C2=O)CC(O)(C(=O)CO)CC3OC1CC(N)C(O)C(C)O1", "note": "(stereo not drawn) + Cc1cccc(N(C)C(=O)C2C(O)CCN2c2nc(C)cc(C(F)(F)F)c2C#N)c1", "IC50": 0.152}
{"smiles": "COc1ccc([C@@H](O)c2cc(-c3ncnc4cc(N5CCOCC5)ccc34)c(F)cc2Cl)nn1", "note": "+ Cc1cccc(N(C)C(=O)C2C(O)CCN2c2nc(C)cc(C(F)(F)F)c2C#N)c1", "IC50": "> 10"}
{"tested_on": "843126-344-R-J1-PDC complex spheroid viability", "test": "Anticancer human tumor 843126-344-R-J1-PDC cell line growth inhibition [POLQ];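 as to viability, T/C: spheroids exposed to drugs for seven days before readout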", "details": "second compound 0.0316 µM; first compound 0.0316 µM; stronger effect = lower value", "protocol": "as §1, §2, §3, §4", "units": {"viability, T/C": "%"}}
{"smiles": "O=C(Nc1ccc(O)c(NS(=O)(=O)c2ccc(F)cc2)c1)c1ccc(-c2ccccc2)cc1", "note": "+ Cc1cccc(N(C)C(=O)C2C(O)CCN2c2nc(C)cc(C(F)(F)F)c2C#N)c1", "viability, T/C": 90}
{"smiles": "COc1cccc2c1C(=O)c1c(O)c3c(c(O)c1C2=O)CC(O)(C(=O)CO)CC3OC1CC(N)C(O)C(C)O1", "note": "(stereo not drawn) + Cc1cccc(N(C)C(=O)C2C(O)CCN2c2nc(C)cc(C(F)(F)F)c2C#N)c1", "viability, T/C": 92.8}
{"smiles": "COc1ccc([C@@H](O)c2cc(-c3ncnc4cc(N5CCOCC5)ccc34)c(F)cc2Cl)nn1", "note": "+ Cc1cccc(N(C)C(=O)C2C(O)CCN2c2nc(C)cc(C(F)(F)F)c2C#N)c1", "viability, T/C": 95.1}
{"tested_on": "843126-344-R-J1-PDC complex spheroid viability", "test": "Anticancer human tumor 843126-344-R-J1-PDC cell line growth inhibition [POLQ];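 as to viability, T/C: spheroids exposed to drugs for seven days before readout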", "details": "second compound 0.0316 µM; first compound 0.1 µM; stronger effect = lower value", "protocol": "as §1, §2, §3, §4", "units": {"viability, T/C": "%"}}
{"smiles": "O=C(Nc1ccc(O)c(NS(=O)(=O)c2ccc(F)cc2)c1)c1ccc(-c2ccccc2)cc1", "note": "+ Cc1cccc(N(C)C(=O)C2C(O)CCN2c2nc(C)cc(C(F)(F)F)c2C#N)c1", "viability, T/C": 95.2}
{"smiles": "COc1cccc2c1C(=O)c1c(O)c3c(c(O)c1C2=O)CC(O)(C(=O)CO)CC3OC1CC(N)C(O)C(C)O1", "note": "(stereo not drawn) + Cc1cccc(N(C)C(=O)C2C(O)CCN2c2nc(C)cc(C(F)(F)F)c2C#N)c1", "viability, T/C": 62.1}
{"smiles": "COc1ccc([C@@H](O)c2cc(-c3ncnc4cc(N5CCOCC5)ccc34)c(F)cc2Cl)nn1", "note": "+ Cc1cccc(N(C)C(=O)C2C(O)CCN2c2nc(C)cc(C(F)(F)F)c2C#N)c1", "viability, T/C": 76.6}
{"tested_on": "843126-344-R-J1-PDC complex spheroid viability", "test": "Anticancer human tumor 843126-344-R-J1-PDC cell line growth inhibition [POLQ];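 as to viability, T/C: spheroids exposed to drugs for seven days before readout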", "details": "second compound 0.0316 µM; first compound 0.316 µM; stronger effect = lower value", "protocol": "as §1, §2, §3, §4", "units": {"viability, T/C": "%"}}
{"smiles": "O=C(Nc1ccc(O)c(NS(=O)(=O)c2ccc(F)cc2)c1)c1ccc(-c2ccccc2)cc1", "note": "+ Cc1cccc(N(C)C(=O)C2C(O)CCN2c2nc(C)cc(C(F)(F)F)c2C#N)c1", "viability, T/C": 93.6}
{"smiles": "COc1cccc2c1C(=O)c1c(O)c3c(c(O)c1C2=O)CC(O)(C(=O)CO)CC3OC1CC(N)C(O)C(C)O1", "note": "(stereo not drawn) + Cc1cccc(N(C)C(=O)C2C(O)CCN2c2nc(C)cc(C(F)(F)F)c2C#N)c1", "viability, T/C": 39.9}
{"smiles": "COc1ccc([C@@H](O)c2cc(-c3ncnc4cc(N5CCOCC5)ccc34)c(F)cc2Cl)nn1", "note": "+ Cc1cccc(N(C)C(=O)C2C(O)CCN2c2nc(C)cc(C(F)(F)F)c2C#N)c1", "viability, T/C": 93.3}
{"tested_on": "843126-344-R-J1-PDC complex spheroid viability", "test": "Anticancer human tumor 843126-344-R-J1-PDC cell line growth inhibition [POLQ];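 as to viability, T/C: spheroids exposed to drugs for seven days before readout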", "details": "second compound 0.0316 µM; first compound 1 µM; stronger effect = lower value", "protocol": "as §1, §2, §3, §4", "units": {"viability, T/C": "%"}}
{"smiles": "O=C(Nc1ccc(O)c(NS(=O)(=O)c2ccc(F)cc2)c1)c1ccc(-c2ccccc2)cc1", "note": "+ Cc1cccc(N(C)C(=O)C2C(O)CCN2c2nc(C)cc(C(F)(F)F)c2C#N)c1", "viability, T/C": 90.3}
{"smiles": "COc1cccc2c1C(=O)c1c(O)c3c(c(O)c1C2=O)CC(O)(C(=O)CO)CC3OC1CC(N)C(O)C(C)O1", "note": "(stereo not drawn) + Cc1cccc(N(C)C(=O)C2C(O)CCN2c2nc(C)cc(C(F)(F)F)c2C#N)c1", "viability, T/C": 11}
{"smiles": "COc1ccc([C@@H](O)c2cc(-c3ncnc4cc(N5CCOCC5)ccc34)c(F)cc2Cl)nn1", "note": "+ Cc1cccc(N(C)C(=O)C2C(O)CCN2c2nc(C)cc(C(F)(F)F)c2C#N)c1", "viability, T/C": 96.9}
{"tested_on": "843126-344-R-J1-PDC complex spheroid viability", "test": "Anticancer human tumor 843126-344-R-J1-PDC cell line growth inhibition [POLQ];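 as to viability, T/C: spheroids exposed to drugs for seven days before readout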", "details": "second compound 0.0316 µM; first compound 3.16 µM; stronger effect = lower value", "protocol": "as §1, §2, §3, §4", "units": {"viability, T/C": "%"}}
{"smiles": "O=C(Nc1ccc(O)c(NS(=O)(=O)c2ccc(F)cc2)c1)c1ccc(-c2ccccc2)cc1", "note": "+ Cc1cccc(N(C)C(=O)C2C(O)CCN2c2nc(C)cc(C(F)(F)F)c2C#N)c1", "viability, T/C": 99.6}
{"smiles": "COc1cccc2c1C(=O)c1c(O)c3c(c(O)c1C2=O)CC(O)(C(=O)CO)CC3OC1CC(N)C(O)C(C)O1", "note": "(stereo not drawn) + Cc1cccc(N(C)C(=O)C2C(O)CCN2c2nc(C)cc(C(F)(F)F)c2C#N)c1", "viability, T/C": 3.5}
{"smiles": "COc1ccc([C@@H](O)c2cc(-c3ncnc4cc(N5CCOCC5)ccc34)c(F)cc2Cl)nn1", "note": "+ Cc1cccc(N(C)C(=O)C2C(O)CCN2c2nc(C)cc(C(F)(F)F)c2C#N)c1", "viability, T/C": 81}
{"tested_on": "843126-344-R-J1-PDC complex spheroid viability", "test": "Anticancer human tumor 843126-344-R-J1-PDC cell line growth inhibition [POLQ]", "details": "second compound 0.0316 µM; first compound 10 µM; stronger effect = lower value", "protocol": "as §1, §2, §3, §4", "units": {"viability, T/C": "%"}}
{"smiles": "O=C(Nc1ccc(O)c(NS(=O)(=O)c2ccc(F)cc2)c1)c1ccc(-c2ccccc2)cc1", "note": "+ Cc1cccc(N(C)C(=O)C2C(O)CCN2c2nc(C)cc(C(F)(F)F)c2C#N)c1", "viability, T/C": 70.8}
{"smiles": "COc1cccc2c1C(=O)c1c(O)c3c(c(O)c1C2=O)CC(O)(C(=O)CO)CC3OC1CC(N)C(O)C(C)O1", "note": "(stereo not drawn) + Cc1cccc(N(C)C(=O)C2C(O)CCN2c2nc(C)cc(C(F)(F)F)c2C#N)c1", "viability, T/C": 3.68}
